From patent EP0073715A1, “Brominated compounds for use in opacifying products” (Société dite: GUERBET S.A., priority 1981, dated 1983)

Assay: Protein binding (Brodersen technique)
Details: weaker interaction means better tolerance, read-out: Liaison protéique (converted)
From the text: Plus cette interaction est faible et meilleure est la tolérance.

Structure (SMILES): O=C(CCCCC(=O)Nc1c(I)cc(I)c(C(=O)O)c1I)Nc1c(I)cc(I)c(C(=O)O)c1I [Adipiodone de méthylglucamine]
- Kd: 78.1 µM
